Test results published in patent publication US11213514B2, “Alpha-1-adrenergic receptor agonist therapy” (The Regents of the University of California, priority 2016, dated 2022).
Where “and” joins values, the source holds several entries; their conditions need not be identical. Equal entries are not always repeated. Where two headings read alike, the source gives them in different places.

Legend:
mouse heart ATP content = tested on: mouse heart ATP content
Protocol: FIGS. 3A-3E. […] Heart tissue was collected immediately after sacrifice on Day 7. FIG. 3A. […] Gene set analysis was performed on the DESeq2-derived statistics from an omnibus test across these four categories. […] FIG. 3B. RNA abundance for all sequenced cytochrome C oxidase subunits (25 genes), mitochondrial complex I subunits (42 genes), and ATP synthase subunits (17 genes) was aggregated by group and compared to vehicle treatment. FIG. 3C. Quantitative RT-PCR for peroxisome proliferator-activated receptor gamma coactivator 1-alpha (PGC1α) was performed on mouse heart tissue (n in individual bars) FIG. 3D. ATP content was measured in freshly harvested mouse heart tissue (total n in individual bars), then quantified relative to protein content. […] FIG. 3E. Thiobarbituric acid reactive substances (TBARS) were assayed in mouse myocardium.
(§1) (FIG. 3B). […] (FIG. 3C).
Mouse hearts were removed and immediately processed for luciferin-luciferase ATP assay (ThermoFisher Scientific A22066) according to manufacturer instruction. Tissue was homogenized and heated at 95 C for 7 minutes, centrifuged at 14000 rpm for 5 minutes. Total protein in the supernatant was quantified using the Bradford Assay (Pierce #23200). Luminescence was measured at 560 nm.

[1] = tested on: neonatal rat ventricular myocytes (NRVMs); experiment: Mitochondrial membrane potential (JC-1) in NRVMs; assay type: cell-based
Protocol: (§2) FIG. 6A-6C. […] FIG. 6A. Mitochondrial membrane potential was assessed using JC-1 and fluorescent intensity was quantified using a plate reader. Red indicates intact mitochondrial membrane potential; green indicates compromised mitochondrial membrane potential (relative). Lysates were blotted for selected regulators of apoptosis and mitochondrial cell death effectors. Representative Western blots and summary findings from 3 independent experiments with at least 2 wells per condition in each experiment are shown.
JC-1 exists as a green fluorescent monomer at low mitochondrial membrane potential and a red fluorescent aggregate at high mitochondrial membrane potential. […] (FIGS. 6A-6C).
Mitochondrial membrane potential: Mitochondrial membrane potential in NRVMs was determined by 5, 5′, 6, 6′-tetrachloro-1, 1′, 3, 3′-tetraethylbenzimidazolylcarbocyanine iodide (JC-1) reduction. Cells were stained with JC-1 (Mitoprobe, Cayman Chemical Company) according to the manufacturer's protocol. In brief, serum-starved NRVMs were treated with DOX or vehicle in the presence or absence of dabuzalgron. […] Cells were washed once with medium then analyzed by plate reader (CLARIOstar, BMG LABTECH, Germany). JC-1 green fluorescence was excited at 488 nm and emission was detected using a 530±40 nm filter. JC-1 red fluorescence was excited at 488 nm and emission was detected using a 613±20 nm filter.

[2] = tested on: mice lacking the α1A-AR (AKO); experiment: Doxorubicin cardiotoxicity in mice lacking the α1A-AR (survival, anatomy, conscious echocardiography)
Excerpt: FIGS. 2A-2B. […] On Day 7 the mice underwent echocardiography prior to sacrifice. FIG. 2A. Fractional shortening, a measure of contractile function, with representative M-mode echocardiogram images. […] FIG. 2B. Heart sections from some of these mice (i.e. wild type mice) stained with Masson Trichrome. Fibrosis (weighted average collagen content) was quantified using Aperio ImageScope software.
C57Bl6J mice were from Jackson Laboratory or from our breeding colony. α1A-AR knockout (AKO) mice from Paul C. Simpson were congenic on a C57Bl6J background for at least 10 generations and produced by heterozygous breeding in our animal facility. 8-12 week old males were used in all experiments. Female Sprague-Dawley rats with newborn litters were from Charles River. Animal care and experimental protocols were approved by the UNC IACUC and complied with Guide for the Care and the use of Laboratory Animals (National Research Council Committee for the Update of the Guide for the Care and Use of Laboratory Animals, 2011).
On Day 7, mice underwent echocardiography and were sacrificed by cervical dislocation after an overdose of isoflurane.
Conscious transthoracic echocardiography was performed on loosely restrained mice in the McAllister Heart Institute Animal Models Core using a VisualSonics Vevo 2100 ultrasound system (VisualSonics, Inc., Toronto, Ontario, Canada). Two-dimensional and M-mode echocardiography were performed in the parasternal long-axis view at the level of the papillary muscle. Left ventricular systolic function was assessed by fractional shortening (% FS=[(LVEDD−LVESD)/LVEDD]×100). Reported values represent the average of at least five cardiac cycles per mouse. Sonographers and investigators were blinded to mouse treatment condition during image acquisition and analysis.

[3] = tested on: cytochrome c, caspases, PARP; experiment: Immunoblot for cytochrome c and downstream effectors of apoptosis in NRVMs; assay type: cell-based, rat; conditions: NRVM lysates, 4 hours
Protocol: as §2, with “effectors.” for “effectors. Representative Western blots and summary findings from 3 independent experiments with at least 2 wells per condition in each experiment are shown.”
Homogenized tissue or cells were lysed in RIPA buffer with protease and phosphatase inhibitor (as above) and the lysate was passed through a Qiashredder. Equal protein abundance was assured with the Bradford assay (tissue lysates) or equal cell number (NRVMs). Samples were run for 2 hours at 140 v on ice on a Novex NuPAGE 4-12% Bis-Tris gel then transferred to a PVDF membrane at 90V for 1 hour on ice. Membranes were blocked in 5% milk at room temperature for 1 hour. We used Cell Signaling kit #9100 (pERK Thr202/Tyr204 1:250, ERK 1:1000, anti-rabbit HRP 1:1000). BID: (Santa Cruz, SC-11423); Cytochrome C: (Santa Cruz, SC-13560); AIF: (Santa Cruz, SC-13116); Caspase 8: (MBL international corporation, JM-3020-100); PARP: (Cell Signaling, #9532); Caspase 3: (Cell Signaling, #9665); Cleaved caspase 3: (Cell Signaling, #9664)

PGC1α = experiment: qRT-PCR for PGC1α in mouse heart tissue; assay type: in vivo
Protocol: FIGS. 3A-3E. […] FIG. 3A. […] FIG. 3B. […] FIG. 3C. […] FIG. 3E.
as §1
Total RNA was isolated from cells and tissue (QiagenRNeasy Plus mini kit #74134) and analyzed using a NanoDrop (ThermoScientific). For qRT-PCR, one […]g of RNA was reverse transcribed using High Capacity cDNA Reverse Transcription Kit (Life Technologies #4368814). Two step qRT-PCR reactions contained 2% of the cDNA product. All reactions were performed in triplicate in a Roche 480 Light Cycler. Relative quantitation of PCR products used the ΔΔCt method relative to two validated reference genes (Tbp and Polr2a). Similar efficiencies were confirmed for all primers. All probes and primers were from Roche.

women = conditions: cited from earlier work
[4] = human, 1.5 mg by mouth twice daily
[5] = α1A-KO mice, Dox 20 mg/kg i.p. + dabuzalgron 20 μg/kg/d gavage 7 days
[6] = α1A-KO mice, Dox + 1240 20 μg/kg/d, Day 7 echocardiography

COc1cccc2c1C(=O)c1c(O)c3c(c(O)c1C2=O)C[C@@](O)(C(=O)CO)C[C@@H]3O[C@H]1C[C@H](N)[C@H](O)[C@H](C)O1 [DOX, doxorubicin]
decrease in ATP content compared to untreated hearts (mouse heart ATP content; mouse, in vivo): 23±7% | mitochondrial membrane potential (JC-1) ([1]; DOX for 4 hours): profound loss | fractional shortening, DOX-treated AKO vs DOX-treated WT mice ([2]; mouse, in vivo): significantly lower | 7-day survival ([2]; α1A-KO mice, Dox 20 mg/kg i.p. + vehicle gavage 7 days): 38% and 50% | 7-day survival ([2]; α1A-KO mice, Dox 20 mg/kg i.p. + vehicle gavage 7 days, listed as Dox): 38% | cleavage of caspases and PARP ([3]; doxorubicin 2 μM): caused cleavage | cytochrome c release ([3]; doxorubicin 2 μM): increased | PGC1α abundance (PGC1α; mouse heart in vivo, DOX): decreased

Cc1c(OCC2=NCCN2)ccc(Cl)c1NS(C)(=O)=O [dabuzalgron, N-[6-chloro-3-(4,5-dihydro-1H-imidazol-2-ylmethoxy)-2-methylphenyl]methanesulfonamide]
BP (women; [4]): did not alter | HR (women; [4]): did not alter | difference in urinary incontinence between dabuzalgron and placebo groups (women; interim analysis of the Phase 2 trials): no clinically meaningful difference | changes in BP (women; subjects who received dabuzalgron in any of these trials): no significant changes | tolerability (women; total of 1,223 women, Phase 1, two Phase 2 trials and open-label study): well tolerated | ATP content (mouse heart ATP content; hearts of DOX-treated mice): restored | ATP content (mouse heart ATP content; uninjured mice): did not affect | effect on DOX-induced loss of mitochondrial membrane potential ([1]; DOX for 4 hours with dabuzalgron 10 μM): partially rescued | effect on reduction in contractile function after DOX ([2]; AKO mice): not rescued | effect of dabuzalgron on survival after DOX ([2]; AKO mice, DOX 20 mg/kg i.p., dabuzalgron 10 μg/kg twice daily 7 days): unaffected | 7-day survival [2, 5]: 50% | Body Wt Day 7 [2, 5]: 26.4 ± 1.2 g | HW/BW [2, 5]: 0.39 ± 0.01 % | HW/TL [2, 5]: 5.6 ± 0.2 mg/mm | Heart Wt [2, 5]: 101 ± 5 mg | Lung Wt/TL [2, 5]: 5.1 ± 0.2 mg/mm | FS (Fractional Shortening) [2, 6]: 42 ± 2% | HR (Heart Rate) [2, 6]: 618 ± 19 beats per minute | effect on DOX-induced cytochrome c release and cleavage of caspases and PARP ([3]; doxorubicin 2 μM with Dabuzalgron 10 μM): abrogated | PGC1α abundance (PGC1α; hearts of mice treated with DOX): increased | PGC1α abundance (PGC1α; hearts of mice treated with vehicle control): increased
